One data set has as its system C57BL/6 mouse embryos. The settings on record: in vivo.
Data set [1] concerns wound area of mouse dorsum. Put plainly: Mouse 3-mm excisional wound model with topical creams (FN, β-catenin, Lgr6 localization). In kind it is in vivo. To be noted: higher folate diet 10 mg/kg from one week prior to wounding. From the text: For the mouse studies the animals were divided by random assignment into experimental groups, using both sexes. Folic acid and folic acid/myo-inositol in combination were topically administered to the wound directly with an inert vanishing cream (provided by Carrollwood Pharmacy) as the vehicle of administration or also in combination with an orally administered dietary folic acid supplement. […] The creams contained (i) FA only; two doses of […] combination of higher MI to FA ratio, (iii) a combination of lower MI to FA ratio, (iv) MI only and (v) vehicle control cream. […] The control animals were maintained on normal animal chow containing 3.3 mg/kg FA to maintain health of the animals. After wounding, animals were housed separately and maintained on their respective folate diets. The animals were maintained in cages that were wood chip free on a dust free base for the first several days, to prevent bedding and bedding dust from getting into the freshly made wounds to lessen chances of infection. The animals were anesthetized using isoflurane inhalation. One 3-mm excisional circular wound was made using a dermal biopsy punch, followed by application of the experimental or control topical cream on the wound. The excised area remained uncovered and healing was closely monitored daily until wound was closed. At day 15 after wounding, the animal was euthanized. […]

For another data set, the system named is E15.5 mouse hearts. Put plainly: Histology of HCy-exposed E15.5 mouse hearts. In kind it is in vivo. To be noted: single HCy exposure on E6.75. As to the method: Li- and HCy-exposed embryos, and control NaCl-exposed embryos, were fixed in 4% paraformaldehyde in phosphate buffered saline (PBS, pH 7.4) and paraffin sectioned. Sections were stained with hematoxylin-eosin, and some were stained with Toluidine Blue, and examined. Cardiac regions were analyzed for the presence of any obvious malformations using a Nikon SMZ1500 fluorescent stereomicroscope, and digitized images were obtained using a Nikon DS-L2 camera unit.
Malformed and small aortic valves (AoV in H) and pulmonary valves (PV in I) were apparent. […] This was exemplified by a post-stenotic dilatation of the pulmonary artery, apparent in FIG. 12L. […] In summary, in addition to the general cardiac hypertrophy, the viable cardiac anomalies that were observed on E15.5 following a single HCy exposure on E6.75 related primarily to derivatives of the SHF, that is the outflow, the right ventricle, and the tricuspid and SL valves.

Data set [2] has as its system Medium-Chain Acyl CoA Dehydrogenase (MCAD) protein. The data set can be described thus: Immunostaining of MCAD protein in E15.5 hearts. The settings on record: E15.5 heart; versus control. In kind it is in vivo, mouse. Here is the method: Li+-, and HCys-, and control, NaCl-exposed, embryos were fixed in 4% paraformaldehyde in PBS, paraffin embedded, and sectioned. Sections were immunostained with MCAD antibodies (Sigma, St. Louis, Mo.) for the protein product of Acadm gene expression. Primary antibody localization was visualized with Cy3-secondary antibodies. Localization of gene and protein expression was analyzed with a Nikon Optiphot II phase microscope (Nikon Instruments, Inc., Melville, N.Y.). Digitized images were obtained with a Nikon DS-L2 Camera unit.

Each structure is given as a SMILES string. Counter-ions that a name gives are not always drawn.

Turning to `Nc1nc2ncc(CNc3ccc(C(=O)N[C@@H](CCC(=O)O)C(=O)O)cc3)nc2c(=O)[nH]1` [FA, folic acid], in the data set on C57BL/6 mouse embryos, the DAPI is listed as 1.82, the DVPI came out at 1.04, the “E/A Ratio” value is recorded as 0.28 and the HR is 191 bpm. In the data set with C57BL/6 mouse embryos, this compound had an ICT % of 7.32%, an IRT % of 12.82%, an MPI of 0.50 and an OF of 34.30 cm/s. In the data set with C57BL/6 mouse embryos, this compound registered an RR of 314 ms and a UAPI of 1.71. In addition, the “healing with dietary supplementation” value in data set [1] is listed as “no differences in healing”.
As for `N[C@H]1CCSC1=O` [HCy, L-homocysteine thiolactone hydrochloride], the “cardiac pathology on E15.5” value with E15.5 mouse hearts was “right and left side cardiac hypertrophy”. For the same compound, the MCAD protein result in data set [2] is given as “increased”.

Values taken from patent US9308210B2, “Method for modulating canonical Wnt pathway using folate and inositol” (University of South Florida, priority 2009, dated 2016).
